Data as given in patent US4578392A, “Pyrazolo[1,5-a]pyridine derivatives and anti-allergic compositions containing them” (Kyorin Pharmaceutical Co., Ltd., priority 1983, dated 1986).

What was measured:
[1] = test system: SRS-A-induced component of anaphylactic bronchoconstriction; experiment: Inhibitory activity on bronchial anaphylaxis in conscious guinea pigs (SRS-A preferentially involved in bronchoconstriction); format: in vivo, guinea pig; conditions: Cavia porcellus; oral; actively sensitized (egg albumin) conscious guinea pigs, 10 mg/kg diphenhydramine intraperitoneally, inhaled antigen; read-out: ED75 (oral dose required to protect 75% of animals from respiratory distress caused by antigen challenge)
Experimental: The effect of the compounds of this invention on bronchial anaphylactic reaction in vivo was evaluated using conscious guinea pigs in a condition where SRS-A was preferentially involved in bronchoconstriction (Boot, J. R. et al.: Int. Arch. Allergy Appl. Immunol. 67, 340 (1982)). The guinea pigs which had been sensitized actively with egg albumin 3 to 4 weeks prior were given intraperitoneally with 10 mg/kg diphenhydramine. In these animals, inhaled antigen caused a marked respiratory distress due to bronchoconstriction. The ED75 values in Table 7 indicate the oral dose of test compound required to protect 75% of animals from respiratory distress caused by antigen challenge.

[2] = test system: SRS-A; experiment: Antagonistic action against SRS-A (SRS-A induced contraction of isolated guinea pig ileum); conditions: 3 U/ml SRS-A, 5 minutes incubation, tripelennamine and atropine in Tyrode solution
Experimental: The anti-SRS-A action of the compounds of this invention was evaluated using isolated guinea pig ileum. Short segments of guinea pig terminal ileum were suspended in Tyrode solution containing tripelennamine (3×10^-7 g/ml) and atropine (3×10^-7 g/ml) and their contractions induced by an addition to the organ bath of 3 U/ml SRS-A* were recorded. The ileum was again contracted after incubation with test compounds for 5 minutes by adding the same amount of SRS-A. The anti-SRS-A action is given in Table 6 as IC50 values which indicate the concentration of test compound required to inhibit SRS-A induced ileal contraction by 50%.
*: The SRS-A used in this experiment was prepared from anaphylactic guinea pig lungs. One unit of SRS-A refers to the amount required to produce a contraction of the guinea pig ileum equal in amplitude to that produced by 5 ng histamine base.

Structure (SMILES) | ED75 [1] | Antagonistic activity against SRS-A IC50 [2]
C=CCOC(CC)(c1c(C(C)C)nn2ccccc12)C(C)C (centres unmarked) [Example 31, 2-isopropyl-3-(1-allyloxy-1-ethyl-2-methylpropyl)pyrazolo[1,5-a]pyridine] | 0.5 mg/kg | 0.27 µg/mL
CC(C)Cc1c(C(C)C)nn2ccccc12 [Example 43] |  | 2.7 µg/mL
CC(C)c1nn2ccccc2c1C(O)C1CCCC1 (centres unmarked) [Example 6] |  | 10.3 µg/mL
C=CCOC(c1c(C(C)C)nn2ccccc12)C(C)C (centres unmarked) [Example 23] | 0.5 mg/kg | 1.06 µg/mL
CCCC(O)(c1c(C(C)C)nn2ccccc12)C(C)C (centres unmarked) [Example 17] | 0.75 mg/kg | 2.03 µg/mL
CCCc1c(C(C)C)nn2ccccc12 [Example 39, 2-Isopropyl-3-propylpyrazolo[1,5-a]pyridine] |  | 2.8 µg/mL
CCCCCCC(O)(c1c(C(C)C)nn2ccccc12)C(C)C (centres unmarked) [Example 19] |  | 2.14 µg/mL
C=CCOC(CCC)(c1c(C(C)C)nn2ccccc12)C(C)C (centres unmarked) [Example 32] | 2 mg/kg | 0.52 µg/mL
CCC(O)c1c(C(C)C)nn2ccccc12 (centres unmarked) [Example 8, 2-isopropyl-3-(1-hydroxypropyl)pyrazolo[1,5-a]pyridine] |  | 27 µg/mL
COCc1c(C(C)C)nn2ccccc12 [Example 37, 2-Isopropyl-3-methoxymethylpyrazolo[1,5-a]pyridine] |  | 14.7 µg/mL
C=CCC(O)(c1c(C(C)C)nn2ccccc12)C(C)C (centres unmarked) [Example 20] | 0.5 mg/kg | 1.51 µg/mL
CCCc1nn2ccccc2c1C(O)CCC (centres unmarked) [Example 11] |  | 16.4 µg/mL
CCOC(c1c(C(C)C)nn2ccccc12)C(C)C (centres unmarked) [Example 22] |  | 7.2 µg/mL
COC(c1c(C(C)C)nn2ccccc12)C(C)C (centres unmarked) [Example 21, 2-Isopropyl-3-(1-methoxy-2-methylpropyl)pyrazolo[1,5-a]pyridine] | 0.36 mg/kg | 6.6 µg/mL
COc1ccc2c(C(O)C(C)C)c(C(C)C)nn2c1 (centres unmarked) [Example 13] | 0.5 mg/kg | 4.9 µg/mL
Cn1c(=O)c2[nH]cnc2n(C)c1=O [Aminophylline, reference compound] | 3.5 mg/kg | 
CCCOC(CC)(c1c(C(C)C)nn2ccccc12)C(C)C (centres unmarked) [Example 35, 2-Isopropyl-3-(1-ethyl-1-propoxy-2-methylpropyl)pyrazolo[1,5-a]pyridine] | 0.5 mg/kg | 1.23 µg/mL
CC(C)c1nn2ccccc2c1C(C)C(C)C (centres unmarked) [Example 44] | 0.5 mg/kg | 1.6 µg/mL
COC(c1c(C(C)C)nn2cc(C)ccc12)C(C)C (centres unmarked) [Example 26] |  | 18.4 µg/mL

Structure (SMILES) | ED75 [1] | Antagonistic activity against SRS-A IC50 [2]
C=CCOC(c1c(C(C)C)nn2cc(C)ccc12)C(C)C (centres unmarked) [Example 27] |  | 3.93 µg/mL
C=C(c1c(C(C)C)nn2ccccc12)C(C)C [Example 41] |  | 2.45 µg/mL
CC(C)c1nn2ccccc2c1C(O)C(C)C (centres unmarked) [Example 5, 2-Isopropyl-3-(1-hydroxy-2-methylpropyl)pyrazolo[1,5-a]pyridine] | 0.48 mg/kg | 1.75 µg/mL
CC(C)=Cc1c(C(C)C)nn2ccccc12 [Example 40] |  | 2.7 µg/mL
CCCCOC(c1c(C(C)C)nn2ccccc12)C(C)C (centres unmarked) [Example 25] |  | 9.98 µg/mL
CCC(OC)(c1c(C(C)C)nn2ccccc12)C(C)C (centres unmarked) [Example 30] | 1 mg/kg | 1.52 µg/mL
CCCC(O)c1c(C(C)C)nn2ccccc12 (centres unmarked) [Example 9] |  | 26.8 µg/mL
COc1ccc2c(C(OC)C(C)C)c(C(C)C)nn2c1 (centres unmarked) [Example 28] |  | 7.36 µg/mL
CCCOC(c1c(C(C)C)nn2ccccc12)C(C)C (centres unmarked) [Example 24] |  | 5.09 µg/mL
C=CCOC(c1c(C(C)C)nn2cc(OC)ccc12)C(C)C (centres unmarked) [Example 29] |  | 3.84 µg/mL
CCCCC(O)(c1c(C(C)C)nn2ccccc12)C(C)C (centres unmarked) [Example 18] | 0.5 mg/kg | 0.84 µg/mL
CC(C)c1nn2ccccc2c1C(OCC1CO1)C(C)C (centres unmarked) [Example 34, 2-isopropyl-3-[1-(2,3-epoxypropoxy)-2-methylpropyl]pyrazolo[1,5-a]pyridine] |  | 7.33 µg/mL
CCC(O)(c1c(C(C)C)nn2ccccc12)C(C)C (centres unmarked) [Example 15, 2-Isopropyl-3-(1-hydroxy-1-ethyl-2-methylpropyl)pyrazolo[1,5-a]pyridine] | 0.68 mg/kg | 1.75 µg/mL
CC(O)COC(c1c(C(C)C)nn2ccccc12)C(C)C (centres unmarked) [Example 36, 2-Isopropyl-3-[1-(2-hydroxypropoxy)-2-methylpropyl]pyrazolo[1,5-a]pyridine] |  | 14.9 µg/mL
Cc1nn2ccccc2c1C(O)C(C)C (centres unmarked) [Example 10] |  | 10.3 µg/mL
CC(C)c1nn2ccccc2c1C(C)(O)C(C)C (centres unmarked) [Example 16] |  | 23.5 µg/mL
CC=C(c1c(C(C)C)nn2ccccc12)C(C)C [Example 42] |  | 0.44 µg/mL
C=CCOC(CCCC)(c1c(C(C)C)nn2ccccc12)C(C)C (centres unmarked) [Example 33] |  | 2.36 µg/mL
